Data from patent US20220119493A1, “IL-7R-ALPHA BINDING COMPOUNDS” (MEDIKINE, INC., priority 2020, published 2022).
pEC50, pIC50: −log10 of the molar value.

Experiments:
IL-7Rα = molecular target: T1, IL-7Rα (Homo sapiens, UniProt P16871); experiment: Competitive binding ELISA bn407:NA-HRP; conditions: bn407:NA-HRP 10 nMf; SEQ ID NOS: 520-534 with two glycines (-GG-) on the carboxyl terminus
T1 construct: Fc; purchased ACRObiosystems, Inc. ILB-H5258

IL-7Rα subunit = molecular target: T2, IL-7Rα subunit (Homo sapiens, UniProt P16871); experiment: Phage ELISA competition assay; conditions: read-out: IC50, binding to the unique binding site on the IL-7Rα subunit
T2 construct: Fc; purchased ACRObiosystems, Inc. ILB-H5258

CD4 and CD8 T-cells = experiment: Ki-67 proliferation assay in CD4 and CD8 T-cells; assay type: cell-based; conditions: human PBMCs, 3 days; hIL-7 comparator

T2 sequence (P16871 21-236): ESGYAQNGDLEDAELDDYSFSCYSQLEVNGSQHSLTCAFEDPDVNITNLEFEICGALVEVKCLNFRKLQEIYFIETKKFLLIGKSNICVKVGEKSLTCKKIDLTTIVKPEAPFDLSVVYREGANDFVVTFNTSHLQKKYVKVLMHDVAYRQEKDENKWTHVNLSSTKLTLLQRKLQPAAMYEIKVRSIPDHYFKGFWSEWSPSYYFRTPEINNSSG
T1 sequence (P16871 21-236): as above

Molecule	pIC50 (IL-7Rα subunit)	also measured
CC[C@H](C)[C@H](NC(=O)[C@H](CCCNC(=N)N)NC(=O)[C@H](Cc1c[nH]cn1)NC(=O)[C@@H](N)C(C)C)C(=O)N1CCC[C@H]1C(=O)N[C@@H](Cc1c[nH]c2ccccc12)C(=O)N[C@H]1CSSC[C@@H](C(=O)N[C@@H](C)C(=O)N[C@@H](Cc2c[nH]c3ccccc23)C(=O)N[C@@H](CC(C)C)C(=O)N[C@@H](CCCNC(=N)N)C(=O)N[C@@H](CCC(N)=O)C(=O)N[C@@H](CCSC)C(=O)NCC(=O)NCC(=O)O)NC(=O)[C@H](CCC(N)=O)NC(=O)[C@H](CC(C)C)NC(=O)CNC(=O)CNC(=O)[C@@H]2CCCN2C(=O)[C@H](CC(=O)O)NC(=O)[C@H](CC(C)C)NC(=O)[C@H]([C@@H](C)O)NC1=O [SEQ ID NO: 554, VHRIPWCTLDPGGLQCAWLRQMGG]	–	pIC50 (IL-7Rα): 6.42
CSCC[C@H](NC(=O)[C@@H](N)Cc1ccc(O)cc1)C(=O)N[C@@H](C)C(=O)N[C@H]1CSSC[C@@H](C(=O)N[C@@H](CCCNC(=N)N)C(=O)N[C@@H](CC(C)C)C(=O)N[C@@H](CO)C(=O)O)NC(=O)[C@H](CC(C)C)NC(=O)[C@H](CO)NC(=O)[C@H](CC(C)C)NC(=O)CNC(=O)[C@H](CO)NC(=O)[C@H](CO)NC1=O [compound 104]	> 5.00	–
hIL-7: human interleukin-7, the natural cytokine, comparator in the functional assays	–	pEC50 (CD4 and CD8 T-cells): ~9.00

Second part, led by results:

pIC50 (IL-7Rα subunit)	Molecule	also measured
> 5.00	CC[C@H](C)[C@H](NC(=O)[C@@H]1CSSC[C@H](NC(=O)[C@@H](N)CCC(N)=O)C(=O)N[C@@H](C(C)C)C(=O)N[C@@H](Cc2c[nH]cn2)C(=O)N[C@@H](Cc2c[nH]c3ccccc23)C(=O)N[C@@H](CC(=O)O)C(=O)N[C@@H](CC(C)C)C(=O)N[C@@H](CC(=O)O)C(=O)N[C@@H]([C@@H](C)O)C(=O)N[C@@H](CC(C)C)C(=O)N[C@@H](Cc2ccccc2)C(=O)NCC(=O)N1)C(=O)N[C@@H](CCCNC(=N)N)C(=O)N[C@@H](CCC(=O)O)C(=O)N[C@@H](CCC(N)=O)C(=O)N[C@@H](CC(C)C)C(=O)N[C@@H](CCC(=O)O)C(=O)N[C@@H](CC(C)C)C(=O)O [compound 146]	–
> 5.00	CC(C)C[C@@H]1NC(=O)[C@H](CO)NC(=O)CNC(=O)[C@@H]2CCCN2C(=O)[C@H](CC(=O)O)NC(=O)[C@H](CC(C)C)NC(=O)[C@H]([C@@H](C)O)NC(=O)[C@@H](NC(=O)[C@H](Cc2c[nH]c3ccccc23)NC(=O)[C@@H]2CCCN2C(=O)[C@@H](NC(=O)CNC(=O)CN)C(C)C)CSSC[C@@H](C(=O)N[C@@H](C)C(=O)N[C@@H](Cc2c[nH]c3ccccc23)C(=O)N[C@@H](Cc2ccccc2)C(=O)O)NC(=O)[C@H](CCC(N)=O)NC1=O [compound 458]	–
